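Cultured in 96-well plates, cells were exposed to test compound for 48 hours across five concentrations. GI50 is the concentration that inhibits growth by half.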 Calls of active or inactive are those of the source. No stated cut-off is given here; in the data, active = GI50 up to about 1.1 µM and inactive = higher.
Columns and labels:
Test in all cases: growth of human tumour cells (NCI), 48 h
[1] = system: DLD-1
[2] = system: XF498
[3] = system: DU-145
[4] = system: MDA-N
[5] = system: PC-3

For Nc1c(-c2ccccc2[N+](=O)[O-])nc2ccccn12, the GI50 [1] was > 100 µM (inactive).

O=c1n(Cc2ccccc2)c2ccccc2n1CC1CS1 (stereo not given) was tested, and the GI50 [2] was > 100 µM (inactive).

CC1(C)OCC=CCO1 was tested, and the GI50 [3] was > 100 µM (inactive), the GI50 [4] was > 100 µM (inactive) and the GI50 [5] was > 100 µM (inactive).
